This note sets out measurements from patent US20240401101A1, “A LIVE CELL ASSAY TO DETERMINE PERMEABILITY OF TEST MOLECULES TO AND/OR WITHIN THE PEPTIDOGLYCAN SCAFFOLD OF BACTERIA CELLS” (priority 2021, published 2024).

Assay type in all cases: cell-based, Mycobacterium smegmatis
Data set [1] deals with M. smegmatis mc^2 155. The data set can be described thus: PAC-MAN competition with azide-modified test molecules. To be noted: concentration dependent analysis, 2 h, then Fl-az; read-out: EC50 of apparent permeation. Here is the method: Competition with test molecules. To a 96-well plate added 100 uL DBCO-modified M. smegmatis mc^2 155 cells pre well with 50 μM test molecules, in triplicate respectively. The plate was incubated in 37° C. for 2 h. The cells were spun down for 2 min at 3000 g. The supernatant was decanted, and 50 μM FAM-N3 was then added to each well, followed by incubation in 37° C. for 1 h. The cells were then spun down again, and the pellets were washed with PBST for 2 times and fixed with 4% formaldehyde for 15 mins. The samples were then analyzed by Attune™ NxT Acoustic Focusing Cytometer.
LLysN3 competition. To a 96-well plate added 100 uL DBCO-modified M. smegmatis mc^2 155 cells pre well with different concentration of L-Lys-N3 described in the main text, in triplicate respectively. The plate was incubated in 37° C. for 2 h. The cells were spun down for 2 min at 3000 g. […] The samples were then analyzed by Attune® NxT Acoustic Focusing Cytometer.
Next, we set out to benchmark the ability of the assay to report on the permeability of a set of test small molecules by performing a pilot screen with azide-conjugated compounds. […] Next, cells are treated with Fl-az to quantify the level of unreacted DBCO epitopes.^42 Finally, cells are analyzed by flow cytometry to measure total cellular fluorescence.

Data set [2] deals with M. smegmatis mc^2 155. Kind of data set: Example IV: metabolic PG labeling of Msm with DBCO tags followed by azide fluorophore, flow cytometry. Here is the method:
General method for bacterial peptidoglycan modification. M. smegmatis strains was inoculated from the glycerol stock to the according media and grown for 24 hours until 0.5-0.6 OD, tetrapeptide probes were added to the media and the cells were grown overnight to achieve stationary phase. The cells were harvested the next day and spun down for 2 min at 3000 g, washed with phosphate buffered saline with tween80 (PBST, PBS with 0.05% tween 80) two times and resuspended in PBST to yield DBCO-modified M. smegmatis cells for further labeling and other experiments.
(§1) DBCOtetra compared with stereo control and single amino acid DBCO. M. smegmatis mc^2 155 was inoculated from stationary phase in 1:100 dilution to a fresh 7H9 media with ADC. 25 μM Dap-DBCO, DBCOtetra or DBCOtera(L) were added to the culture tubes respectively, and the cells were grown for 36-40 hours until stationary phase. The cells were harvested and spun down for 2 min at 3000 g, washed with PBST two times and resuspended in PBST. To a 96-well plate added 100 μL cells pre well with 50 μM FAM-N3 in triplicate. The plate was incubated in 37° C. for 1 h and spun down for 2 min at 3000 g. The supernatant was decanted, and the pellets were washed with PBST for 2 times and fixed with 4% formaldehyde for 15 mins. The samples were then analyzed by Attune™ NxT Acoustic Focusing Cytometer.
as §1, with “Confirm for click chemistry on PG.” for “DBCOtetra compared with stereo control and single amino acid DBCO.”, “μM” for “μM Dap-DBCO,”, “FL-tetra” for “DBCOtera(L)”, “uL” for “μL”, “FAM-N3 or 5-carboxy fluorescein accordingly” for “FAM-N3”
as §1, with “Different concentrations of DBCOtetra.” for “DBCOtetra compared with stereo control and single amino acid DBCO.”, “ADC. 5 μM, 10 μM or” for “ADC.”, “μM” for “μM Dap-DBCO,”, “DBCOtetra” for “DBCOtetra or DBCOtera(L)”, “1h” for “1 h”
Different concentration of FAM-N3 and different time. M. smegmatis mc^2 155 was inoculated from stationary phase in 1:100 dilution to a fresh 7H9 media with ADC. 25 μM DBCOtetra were added to the culture tubes, and the cells were grown for 36-40 hours until stationary phase. The cells were harvested and spun down for 2 min at 3000 g, washed with PBST two times and resuspended in PBST. To a 96-well plate added 100 μL cells pre well with different concentration of FAM-N3 described in the main text, 9 wells each. […] The samples were then analyzed by Attune™ NxT Acoustic Focusing Cytometer. […]
Background: Flow cytometry measures light scatter and fluorescence of single cells or particles in a stream.

Data set [3] concerns M. smegmatis cells. Kind of data set: Ethidium bromide and Nile red whole-cell accumulation assay. To be noted: cells treated with vehicle or TetD (25 or 50 μM); both dyes. The protocol: Ethidium bromide and Nile red whole-cell accumulation assay. To a Costar 96-well half area black opaque flat bottom plate added 100 uL DBCO-modified M. smegmatis cells each well with 5 μM ethidium bromide and 10 μM Nile red in triplicates, respectively. The fluorescent intensity at different time points were taken by a Synergy H1 microplate reader for 90 min with 3 min intervals and continuously orbital shaking. Wavelengths ethidium bromide, excitation 530 nm, emission 590 nm; Nile red, excitation 540 nm, emission 630 nm.

For data set [4], the system named is Msm ldtΔ5 (PM2750 Δ5). Kind of data set: TetD labeling of Ldt knock out strain. To be noted: 25 μM TetD, 50 μM Fl-Az. Here is the method: Ldt knock down strain. M. smegmatis mc^2 155 and PM2750 Δ5 were inoculated from the glycerol stock to the according media and grown for 24 hours until 0.5-0.6 OD, 25 μM DBCOtetra were added to the media, and the cells were grown overnight to achieve stationary phase. The cells were harvested and spinned down for 2 min at 3000 g, washed with PBST two times and resuspended in PBST. To a 96-well plate added 100 uL cells pre well with 50 μM FAM-N3 accordingly in triplicate. The plate was incubated in 37° C. for 1 h and spun down for 2 min at 3000 g. The supernatant was decanted, and the pellets were washed with PBST for 2 times and fixed with 4% formaldehyde for 15 mins. The samples were then analyzed by Attune™ NxT Acoustic Focusing Cytometer.

The EC50 is the concentration giving half of the maximal effect. `[N-]=[N+]=NCCCC[C@H](N)C(=O)O` [Lys]: the EC50 in data set [1] stood at 100 µM.

Consider `C[C@H](NC(=O)CCC(=O)N1Cc2ccccc2C#Cc2ccccc21)C(=O)N[C@H](CCC(=O)N[C@@H](CCCCN)C(=O)N[C@H](C)C(=O)O)C(N)=O` [TetD], for which the “PG labeling levels (fluorescence) above vehicle treated cells” value in data set [2] (Msm, metabolic label then Fl-az) is about 85 fold. Further, in data set [2] (metabolic label and/or fluorophore as named), the “fluorescence levels of Msm” value is listed as “concentration-dependent increase in cellular fluorescence”. For the same molecule, in data set [3], the “accumulation of the permeability probe (EtBr or Nile Red)” value is listed as “no significant change in the accumulation of the permeability probe”. Besides, the “decrease of fluorescence levels relative to the parental cells” value in data set [4] was about 7 fold.
